Patent publication US12545685B2 (Daiichi Sankyo Company, Limited, priority 2011, dated 2026)

Columns and labels:
[1] = human, microsomes, 0.5 h
Protocol: 100 μl of 100 mM phosphate buffer solution (pH 7.4) containing 3 μM test compound was added to 100 μl of reaction solution containing 100 mM phosphate buffer solution (pH 7.4), 30 mM glucose 6-phosphate, 10 mM MgCl2·6H2O, 3 units/ml glucose 6-phosphate 1-dehydrogenase, and 0.3 to 1.5 mg/ml human liver microsomes and the mixture was incubated at 37° C. for 20 minutes. Then 70 μl of 100 mM phosphate buffer solution (pH 7.4) containing 3 mM NADP+ was added and the mixture was further incubated at 37° C. for 30 minutes to conduct a microsomal metabolism test. The compound was quantified by the internal standard method using a quadrupole mass spectrometer connected to a high performance liquid chromatography apparatus. The metabolic stability (residual percentage of compound: MS %) was determined according to the following formula;
(peak area ratio: peak area of test compound divided by that of internal standard substance)

[2] = target: T1, Mdm2/p53 binding (GST-Mdm2 / His-p53) (Homo sapiens, UniProt Q00987, L33E); assay: Mdm2/p53 binding assay (HTRF, His-p53 and GST-Mdm2); details: His-p53 (aa 1-132) and GST-Mdm2 (aa 25-108, L33E) 6.25 nM each; 25°C, 1 hour; values given as ranges
T1 construct: Mdm2 partial protein having Mdm2 amino acids at positions 25 to 108
Procedure, shortened: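 His-p53 (aa 1–132) and GST-Mdm2 (aa 25–108, L33E) were prepared at 6.25 nM each in the protein dilution (20 mM HEPES pH 7.4, 150 mM NaCl, 0.1% BSA). Compound in 10% DMSO buffer and XL665 anti-His/Eu anti-GST antibodies (KF buffer) were added, with 1 h at 25 °C. The 665/620 nm TR-FRET ratio gave T/C and a sigmoid-fitted IC50.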

[3] = tested on: human lung cancer-derived cell line NCI-H460 having wild-type p53; assay: Cell growth inhibition assay (MTT); assay type: cell-based; details: 72 h, NCI-H460 cells, 3 days culture, values given as ranges, read-out: 50% growth inhibition concentration (GI50 value)
Procedure, shortened: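 NCI-H460 cells (wild-type p53) seeded at 500 cells/well in RPMI1640 with 10% FBS, then treated the next day and grown 3 days at 37 °C. MTT read-out at OD 540 nm (660 nm reference), taken at dosing and at day 3. GI50 derived from T/C (%) dose-response curves.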

T1 sequence (Q00987 25-108 L33E): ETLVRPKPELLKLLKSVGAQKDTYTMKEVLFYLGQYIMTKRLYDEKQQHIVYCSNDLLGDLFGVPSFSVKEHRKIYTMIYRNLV

Compound	metabolic stability (residual percentage of compound: MS %) [1]	IC50 [2]	GI50 [3]
CC1(C)CCC2(CC1)N[C@@H](C(=O)N[C@H]1CC[C@H](c3nnco3)CC1)[C@H](c1cccc(Cl)c1F)[C@]21C(=O)Nc2cc(Cl)ncc21 (relative stereo) [Example 108, (3′R, 4′S, S′R)-6″-chloro-4′-(3-chloro-2-fluorophenyl)-4,4-dimethyl-N-[trans-4-(1,3,4-oxadiazol-2-yl)cyclohexyl]-2″-oxo-1″,2″-dihydrodispiro[cyclohexane-1,2′-pyrrolidine-3′,3″-pyrrolo[3,2-c]pyridine]-5′-carboxamide]	70-100%		
CC1(C)CCC2(CC1)N[C@@H](C(=O)N[C@@H]1CC[C@@H](C(N)=O)OC1)[C@H](c1cccc(Cl)c1F)[C@]21C(=O)Nc2cc(Cl)ncc21 [Example 185, (3′R, 4′S,5′R)—N-[(3R,6S)-6-carbamoyltetrahydro-2H-pyran-3-yl]-6″-chloro-4′-(3-chloro-2-fluorophenyl)-4,4-dimethyl-2″-oxo-1″,2″-dihydrodispiro[cyclohexane-1,2-pyrrolidine-3′,3″-pyrrolo[3,2-c]pyridine]-5′-carboxamide]		1 to 50 nM	100 to 500 nM
CC1(C)CCC2(CC1)N[C@@H](C(=O)N[C@@H]1CCC(C)(C(=O)O)OC1)[C@H](c1ccnc(Cl)c1F)[C@]21C(=O)Nc2cc(Cl)ccc21 (stereo partly drawn) [Example 186, (5R)-5-({[(3′R, 4′S,5′R)-6″-chloro-4′-(2-chloro-3-fluoropyridin-4-yl)-4,4-dimethyl-2″-oxo-1″,2″-dihydrodispiro[cyclohexane-1,2′-pyrrolidine-3′,3″-indole]-5′-yl]carbonyl}amino)-2-methyltetrahydro-2H-pyran-2-carboxylic acid]		1 to 50 nM	1000 to 5000 nM
CC1(C)CCC2(CC1)N[C@@H](C(=O)NC1(C)CC[C@@H](C(=O)O)OC1)[C@H](c1ccnc(Cl)c1F)[C@]21C(=O)Nc2cc(Cl)ccc21 (stereo partly drawn) [Example 188, (2S)-5-({[(3′R, 4′S,5′R)-6″-chloro-4′-(2-chloro-3-fluoropyridin-4-yl)-4,4-dimethyl-2″-oxo-1″,2″-dihydrodispiro[cyclohexane-1,2′-pyrrolidine-3′,3″-indole]-5′-yl]carbonyl}amino)-5-methyltetrahydro-2H-pyran-2-carboxylic acid]		1 to 50 nM	100 to 500 nM
CC1(C)CCC2(CC1)N[C@@H](C(=O)N[C@@H]1CC[C@@H](C(N)=O)OC1)[C@H](c1ccnc(Cl)c1F)[C@]21C(=O)Nc2cc(Cl)ncc21 [Example 191]		1 to 50 nM	100 to 500 nM
